Measurements reported in publication PMC3156899 (Clinical cancer research : an official journal of the …, 2011).

Test system: pp65#23-specific CD4+ T cells
Assay: Cytokine ELISPOT / ELISA of pp65#23-specific CD4+ T cells
Type: cell-based, human

221DQYVKVYLESFCEDVPSGKL240 [pp65#23]
IL-10 and IL-17 secretion (IL-10 ELISPOT, IL-17 ELISA (limit of detection 15.0 pg/ml)): no IL-10 or IL-17 was detected | IFN-γ and IL-4 secretion (ELISPOT) (antigen-specific, T2/DP4 pulsed with peptide, Figure 3B): predominantly secreted IFN-γ and much less IL-4 | IL-2 production (ELISPOT) (upon stimulation, Figure 3B): produced IL-2
